# Test results from PubChem BioAssay (NCI).
#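 48-hour exposure; five concentrations; linearly interpolated endpoints. TGI: concentration producing complete growth inhibition.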
# Key:
# Assay in all cases: NCI-60 cell line screen, 48 h
# [1] = tested on: UACC-62 melanoma
# [2] = tested on: ACHN renal
# [3] = tested on: NCI/ADR-RES ovarian
# [4] = tested on: BT-549 breast
# [5] = tested on: SF-268 CNS
# [6] = tested on: MALME-3M melanoma
# [7] = tested on: PC-3 prostate
# [8] = tested on: HT29 colon
# [9] = tested on: IGROV1 ovarian
# [10] = tested on: HCC-2998 colon
# [11] = tested on: MDA-MB-435
# [12] = tested on: OVCAR-5 ovarian
# [13] = tested on: HOP-62 NSCLC
# [14] = tested on: TK-10 renal
# [15] = tested on: T-47D breast
# [16] = tested on: LOX IMVI melanoma
# [17] = tested on: HCT-15 colon
# [18] = tested on: SK-MEL-28 melanoma
# [19] = tested on: SW-620 colon
# [20] = tested on: U251 CNS
# [21] = tested on: SK-MEL-5 melanoma
# [22] = tested on: OVCAR-3 ovarian
# [23] = tested on: M14 melanoma
# [24] = tested on: 786-0 renal
# [25] = tested on: NCI-H522 lung
# [26] = tested on: DU-145 prostate
# [27] = tested on: SF-539 CNS
# [28] = tested on: RPMI-8226 leukemia
# [29] = tested on: COLO 205 colon
# [30] = tested on: HCT-116 colon
# [31] = tested on: NCI-H460 lung
# [32] = tested on: SNB-19 CNS
# [33] = tested on: KM12 colon
# [34] = tested on: UO-31 renal
# [35] = tested on: NCI-H226 lung
# [36] = tested on: OVCAR-8 ovarian
# [37] = tested on: SR leukemia
# [38] = tested on: UACC-257 melanoma
# [39] = tested on: EKVX NSCLC
# [40] = tested on: OVCAR-4 ovarian
# [41] = tested on: K-562 leukemia
# [42] = tested on: SK-MEL-2 melanoma
# [43] = tested on: HS 578T breast
# [44] = tested on: RXF 393 renal
# [45] = tested on: CCRF-CEM leukemia
# [46] = tested on: CAKI-1 renal
# [47] = tested on: NCI-H23 lung
# [48] = tested on: MOLT-4 leukemia
# [49] = tested on: MCF7 breast
# [50] = tested on: SNB-75 CNS
# [51] = tested on: SF-295 CNS
# [52] = tested on: HOP-92 NSCLC
# [53] = tested on: A549 NSCLC
# [54] = tested on: MDA-MB-231 breast
# [55] = tested on: A498 renal
# [56] = tested on: MDA-N
# [57] = tested on: SK-OV-3 ovarian
# [58] = tested on: SN12C renal
smiles,measurement,setting,value
C[C@]1(O)CC(=O)c2c(c(-c3ccc4cc5c(c(O)c4c3O)C(=O)C[C@@](C)(O)C5)c3cccc(O)c3c2O)C1,TGI,[1],27 µM
same,TGI,[2],18 µM
same,TGI,[3],25.4 µM
same,TGI,[4],18.6 µM
same,TGI,[5],17.9 µM
same,TGI,[6],27.1 µM
same,TGI,[7],13.2 µM
same,TGI,[8],20 µM
same,TGI,[9],22.8 µM
same,TGI,[10],16.4 µM
same,TGI,[11],41 µM
same,TGI,[12],25.3 µM
same,TGI,[13],10.9 µM
same,TGI,[14],28 µM
same,TGI,[15],14.4 µM
same,TGI,[16],26.6 µM
same,TGI,[17],11.4 µM
same,TGI,[18],23.2 µM
same,TGI,[19],47 µM
same,TGI,[20],12.3 µM
same,TGI,[21],14 µM
same,TGI,[22],17.2 µM
same,TGI,[23],29.8 µM
same,TGI,[24],17.1 µM
same,TGI,[25],13.5 µM
same,TGI,[26],29 µM
same,TGI,[27],6.45 µM
same,TGI,[28],47.8 µM
same,TGI,[29],3.3 µM
same,TGI,[30],79.7 µM
same,TGI,[31],11.3 µM
same,TGI,[32],23.2 µM
same,TGI,[33],11.7 µM
same,TGI,[34],14.8 µM
same,TGI,[35],21.9 µM
same,TGI,[36],18.5 µM
same,TGI,[37],> 100 µM
same,TGI,[38],30.8 µM
same,TGI,[39],24.7 µM
same,TGI,[40],21.1 µM
same,TGI,[41],> 100 µM
same,TGI,[42],6.22 µM
same,TGI,[43],88 µM
same,TGI,[44],17.8 µM
same,TGI,[45],> 100 µM
same,TGI,[46],18.2 µM
same,TGI,[47],12.9 µM
same,TGI,[48],> 100 µM
same,TGI,[49],> 100 µM
same,TGI,[50],19.3 µM
same,TGI,[51],18.6 µM
same,TGI,[52],8.72 µM
same,TGI,[53],23.8 µM
same,TGI,[54],19.3 µM
same,TGI,[55],16.4 µM
same,TGI,[56],19.4 µM
same,TGI,[57],24.4 µM
same,TGI,[58],15.8 µM
CC1=C(C(=O)OCCc2ccc([N+](=O)[O-])cc2)C(c2ccccc2C(F)(F)F)C(C(=O)OC(C)C)=C(C)N1 (centres undefined),TGI,[1],36.5 µM
same,TGI,[2],> 100 µM
same,TGI,[3],> 100 µM
same,TGI,[4],> 100 µM
same,TGI,[5],> 100 µM
same,TGI,[6],28.5 µM
same,TGI,[7],> 100 µM
same,TGI,[8],> 100 µM
same,TGI,[9],> 100 µM
same,TGI,[10],> 100 µM
same,TGI,[11],> 100 µM
same,TGI,[12],> 100 µM
same,TGI,[13],> 100 µM
same,TGI,[14],> 100 µM
same,TGI,[15],> 100 µM
same,TGI,[16],> 100 µM
same,TGI,[17],> 100 µM
same,TGI,[18],> 100 µM
same,TGI,[19],> 100 µM
same,TGI,[20],> 100 µM
same,TGI,[21],3.09 µM
same,TGI,[22],> 100 µM
same,TGI,[23],16.2 µM
same,TGI,[24],> 100 µM
same,TGI,[25],7.5 µM
same,TGI,[26],> 100 µM
same,TGI,[27],> 100 µM
same,TGI,[28],> 100 µM
same,TGI,[29],16.3 µM
same,TGI,[30],> 100 µM
same,TGI,[31],> 100 µM
same,TGI,[32],> 100 µM
same,TGI,[33],31 µM
same,TGI,[34],> 100 µM
same,TGI,[35],21.5 µM
same,TGI,[36],> 100 µM
same,TGI,[37],> 100 µM
same,TGI,[38],> 100 µM
same,TGI,[39],6.51 µM
same,TGI,[40],> 100 µM
same,TGI,[41],> 100 µM
same,TGI,[42],7.16 µM
same,TGI,[43],61.6 µM
same,TGI,[44],7.34 µM
same,TGI,[45],> 100 µM
same,TGI,[46],> 100 µM
same,TGI,[47],> 100 µM
same,TGI,[48],7.95 µM
same,TGI,[49],> 100 µM
same,TGI,[50],> 100 µM
same,TGI,[51],> 100 µM
same,TGI,[53],> 100 µM
same,TGI,[54],> 100 µM
same,TGI,[56],> 100 µM
same,TGI,[57],30.6 µM
same,TGI,[58],26.7 µM
